# Square brackets hold non-standard residues; d marks the D form. Ends that are not written are not given here. * marks the point of attachment. Aib = CC(C)(N)C(=O)O; BrAc = O=C(CBr)*
# Target: T1, human GLP1R (Homo sapiens, UniProt P43220)
# T1 construct: expressed in transfected cells; host or cells: CHO
# Test: GLP1R agonist cAMP assay in CHO cells stably expressing human GLP1R
# Format: cell-based
# Conditions: relative to maximal effect of human GLP-1, read-out: GLP1R agonist mode Emax (%)
# Procedure: cAMP assay: The in vitro agonist potency of the peptides disclosed herein was evaluated using a cell-based assay measuring cAMP production. CHO cells stably expressing human GLP1R, or both human GIPR and GLP1R, were incubated with increasing concentrations of agonists for 30 minutes at 37° C. Cells were lysed and cAMP was detected using a homogenous time resolved fluorescence detection kit, as described by the manufacturer (Revvity). […] The EC50 and maximum effect (Emax) values were then determined from the normalized effects and agonist concentrations using a four-parameter logistic equation (GraphPad Prism).
# T1 sequence (P43220 24-463): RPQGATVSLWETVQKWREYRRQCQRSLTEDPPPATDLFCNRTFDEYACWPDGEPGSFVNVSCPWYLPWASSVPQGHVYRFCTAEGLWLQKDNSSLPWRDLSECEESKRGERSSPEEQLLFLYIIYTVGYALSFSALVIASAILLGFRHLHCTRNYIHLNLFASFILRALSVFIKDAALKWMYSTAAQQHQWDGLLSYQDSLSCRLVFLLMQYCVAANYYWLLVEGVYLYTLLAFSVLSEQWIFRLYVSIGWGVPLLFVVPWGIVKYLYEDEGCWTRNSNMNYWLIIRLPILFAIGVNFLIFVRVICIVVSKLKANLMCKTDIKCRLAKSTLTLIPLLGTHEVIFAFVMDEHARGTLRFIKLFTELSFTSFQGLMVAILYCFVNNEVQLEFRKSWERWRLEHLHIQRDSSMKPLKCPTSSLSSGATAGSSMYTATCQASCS
row,Emax [%],Molecule
1,122,CC[C@H](C)[C@H](NC(=O)[C@H](Cc1ccccc1)NC(=O)[C@H](CCC(=O)O)NC(=O)[C@H](CCCCN)NC(=O)[C@H](C)NC(=O)[C@H](C)NC(=O)[C@H](CCC(N)=O)NC(=O)[C@H](CCC(=O)O)NC(=O)[C@H](CCC(=O)O)NC(=O)[C@H](CC(C)C)NC(=O)[C@H](Cc1ccc(O)cc1)NC(=O)[C@H](CO)NC(=O)[C@H](CO)NC(=O)[C@H](Cc1ccc(O)cc1)NC(=O)[C@H](CC(=O)O)NC(=O)[C@H](CO)NC(=O)[C@@H](NC(=O)[C@H](Cc1ccccc1)NC(=O)[C@@H](NC(=O)CNC(=O)[C@H](CCC(=O)O)NC(=O)C(C)(C)NC(=O)[C@@H](N)Cc1c[nH]cn1)[C@@H](C)O)[C@@H](C)O)C(=O)N[C@@H](C)C(=O)N[C@@H](Cc1c[nH]c2ccccc12)C(=O)N[C@@H](CC(C)C)C(=O)N[C@H](C(=O)N[C@@H](CCCCN)C(=O)NCC(=O)NCC(=O)NCC(=O)NCC(=O)NCC(=O)NCC(=O)NCC(=O)N[C@@H](CO)C(=O)NCC(=O)NCC(=O)NCC(=O)NCC(=O)N[C@@H](CO)C(=O)NCC(=O)NCC(=O)NCC(=O)NCC(=O)N[C@@H](CO)C(=O)N[C@@H](CCCCNC(=O)CBr)C(N)=O)C(C)C [compound 154]
2,109,H[Aib]EGTFTSDVSSYLEEQAAKEFIAWLVKGGGGGGGSGGGGSGGGGSK(BrAc)-NH2 (C-terminus assumed) [compound 153]
3,109,H[Aib]EGTFTSDYSSYLEEQAAKEFIAWLVKGRGGGGGSGGGGSGGGGSK(BrAc)-NH2 (C-terminus assumed) [compound 151]
4,107,H[Aib]EGTFTSDYSSYLE[Aib]QAAKEFIAWLVKGRGGGGGSGGGGSGGGGSK(BrAc)-NH2 (C-terminus assumed) [compound 152]
